Literature values in US20090192228A1 (ACTAVIS GROUP PTC EHF, priority 2008, published 2009).

Settings: compared with oxybutynin

SMILES: CC(C)N(CCC(c1ccccc1)c1cc(CO)ccc1O)C(C)C (stereo not shown)
- Side-effects relative to oxybutynin, particularly propensity to cause dry mouth: considerably fewer side-effects
